These results are taken from article PMC11191317, “PNSC928, a plant-derived compound, specifically disrupts CtBP2-p300 interaction and reduces inflammation in mice with acute respiratory distress syndrome” (Biology Direct, 2024).

Data set [1] relates to MPAEpiC, RAW264.7, FL83B, TKPTS, and HL-1 cells. Briefly: Cell viability assay in normal cell lines. The class given is cell-based, mouse. Conditions: for Cell growth (cell viability) at lower doses: co-treated with LPS, MTOB 5 mM, NSC95397 10 µM, C646 3 µM, A-485 5 nM, TPCA1 150 nM, BOT64 1 µM; for Cell growth (cell viability assay): assessed every 24 h for 5 days. The text has this: Mouse pulmonary alveolar epithelial cells (MPAEpiC) were sourced from ScienCell Research Laboratories (Carlsbad, CA, USA; #M3200-57). The mouse macrophage cell line RAW 264.7 (#TIB-71), the mouse liver hepatocyte cell line FL83B (#CRL-2390), and the mouse kidney epithelial-like cell line TKPTS (#CRL-3361) were sourced from the American Type Culture Collection (ATCC) (Manassas, VA, USA). Additionally, the mouse cardiac muscle cell line HL-1 (SCC065) was acquired from Sigma-Aldrich. All cell lines were maintained in Dulbecco’s Modified Eagle Medium (DMEM) (Thermo Fisher; #A1048901) fortified with 10% fetal bovine serum (FBS) (Thermo Fisher; #A5256701) and a combination of 100 U/mL penicillin and streptomycin (Thermo Fisher; #15,140,122). Cells were cultured in a 37 °C incubator with 5% CO2, and the medium was changed every 2–3 days. For targeted gene manipulation, cells were transfected with gene-specific short hairpin RNAs (shRNAs) (Table S1) or plasmids (Table S2). Transfection was facilitated using the Lipofectamine 3000 Transfection Reagent (Thermo Fisher; #L3000001) as per the manufacturer’s recommended protocol.
(§1) For LPS treatment, different knockdown (KD) cell lines—Control^KD, CtBP2^KD, p300^KD, and p65^KD, all derived from MPAEpiC—were seeded in 12-well plates and cultured at 37 °C until reaching 80% confluence. The cells were then treated with 200 ng/mL of LPS for 6 h, washed three times with PBS, and subjected to the required experiments. For experiments involving inhibitors of CtBP2, p300, and NF-κB, as well as the compound PNSC928, MPAEpiC, RAW264.7, FL83B, TKPTS, and HL-1 cells were seeded in 12-well plates and cultured at 37 °C to reach 80% confluence. Cells were then cotreated with 200 ng/mL LPS along with varying concentrations of the following chemicals: MTOB (0, 5, 10, or 20 mM), NSC95397 (0, 10, 20, or 40 µM), C646 (0, 3, 6, or 12 µM), A-485 (0, 5, 10, or 20 nM), TPCA1 (0, 150, 300, or 600 nM), BOT64 (0, 1, 2, or 4 µM), or PNSC928 (0, 11.8, 23.6, or 47.2 µM). After 6 h of treatment, cells were washed three times with PBS before proceeding with further experiments.
Fig. 5 Determination of PNSC928 cytotoxicity and evaluation of PNSC928 effects on the expression levels of CtBP2/p300/NF-κB target genes. (A-E) Cell viability assessment. Five cell lines, including MPAEpiC (A), RAW264.7 (B), FL83B (C), TKPTS (D), and HL-1 (E) were treated with varying concentrations of PNSC928 ([…]). Cell viability was assessed every 24 h for 5 days. (F-I) Effects of PNSC928 on gene expression levels. The RAW264.7 cells were co-treated with LPS and PNSC928 (23.6 and 47.2 µM) for a duration of 6 h. Subsequently, RNA isolation and RT-qPCR analysis were performed to quantify mRNA levels of various genes. (F) The mRNA levels of IL-1B, IL-6, IL-15, IL-18, TNFA, and IFNG. (G) The mRNA levels of CDH1, CDKN1A, CDKN2A, CHRD, PAX6, and BAX. (H) The mRNA levels of NOD2, CCL2, CXCL10, CXCL12, MMP1, and STAT1 mRNA levels, (I) The mRNA levels of MIP2, CCR5, GM-CSF, COX2, and iNOS. n = 3 for each experiment. ns: no significant difference. **P < 0.01; ***P < 0.001
Five cell lines (MPAEpiC, RAW264.7, FL83B, TKPTS, and HL-1) were treated with MTOB (5 and 10 mM), NSC95397 (10 and 20 μM), C646 (3 and 6 μM), A-485 (5 and 10 nM), TCPA1 (150 and 300 nM), and BOT-64 (1 and 2 μM). Cell viability was assessed every 24 hours for 5 days. n=3 for all experiments. *P<0.05.

Data set [2] deals with MPAEpiC and RAW264.7 cells. Briefly: RT-qPCR of CtBP2/p300/NF-κB target genes in MPAEpiC and RAW264.7 cells cotreated with LPS and inhibitors. Format: cell-based, mouse. Conditions: LPS cotreatment, 6 h; for Expression levels of IL-1B, IL-6, IL-8, IL-15, TNFA, MIP2, CCR5, GM-CSF, VEGF, COX2, and iNOS / Expression of the other studied genes (CtBP2 and p300 targets): NF-κB inhibitors; for Expression of IL-1B, IL-6, IL-15, IL-18, TNFA, CDH1, CDKN1A, CDKN2A, CHRD, PAX6, and BAX / Expression of the remaining genes (p300 and NF-κB targets): CtBP2 inhibitors; for Expression of IL-1B, IL-6, IL-15, IL-18, TNFA, NOD2, CCL2, CXCL10, CXCL12, MMP1, and STAT1 / Expression of other genes under investigation (CtBP2 and NF-κB targets): p300 inhibitors. As to the method: as §1
RNA was isolated from both cultured cells and mouse lung tissues utilizing the TRIzol Reagent (Invitrogen; Shanghai, China; #15,596,018) in adherence to the manufacturer’s protocol. For each sample, 500 ng of RNA was employed for the synthesis of complementary DNA (cDNA) leveraging the High-Capacity cDNA Reverse Transcription Kit (Thermo Fisher; #4,368,814). Gene expression quantification was carried out using the SYBR GreenER qPCR SuperMix Universal (Thermo Fisher; #1176202K) in combination with the specific primers delineated in Table S3. Subsequent analysis normalized the expression levels to β-Actin, utilizing the 2^−ΔΔCt method.
The RAW264.7 cells were co-treated with LPS and the following compounds: 5 mM MTOB, 10 μM NSC95397, 3 μM C646, 5 nM A-485, 150 nM TPCA1, or 1 μM BOT64 for a duration of 6 hours. Subsequently, RNA isolation and RT-qPCR analysis were performed to quantify mRNA levels of various genes.
The MPAEpiC cells were co-treated with LPS and the following compounds: 5 mM MTOB, 10 μM NSC95397, 3 μM C646, 5 nM A-485, 150 nM TPCA1, or 1 μM BOT64 for a duration of 6 hours. Subsequently, RNA isolation and RT-qPCR analysis were performed to quantify mRNA levels of various genes.
In general terms: Real-time PCR tracks product formation cycle by cycle.

Turning to `NC(=O)Nc1sc(-c2ccc(F)cc2)cc1C(N)=O` [TPCA1], in data set [1], the “Cell growth (cell viability) at lower doses” value (shortened to “Cell growth … at lower doses”) is “notable inhibition of cell growth”. Also, in data set [2], the “Expression levels of IL-1B, IL-6, IL-8, IL-15, TNFA, MIP2, CCR5, GM-CSF, VEGF, COX2, and iNOS” value is “dose-dependent alteration”; the “Expression of the other studied genes (CtBP2 and p300 targets)” value is “without affecting”.

In the case of `O=C1C(SCCO)=C(SCCO)C(=O)c2ccccc21` [NSC95397], the “Cell growth … at lower doses” value in data set [1] is “notable inhibition of cell growth”. In addition, in data set [2], the “Expression of IL-1B, IL-6, IL-15, IL-18, TNFA, CDH1, CDKN1A, CDKN2A, CHRD, PAX6, and BAX” value is “dose-dependent reversal”; the “Expression of the remaining genes (p300 and NF-κB targets)” value is on record as “remained relatively unchanged”.

Take `CC1(C)CC(=O)c2sc(=Nc3ccccc3)oc2C1` [BOT64]: the “Cell growth … at lower doses” value in data set [1] is “notable inhibition of cell growth”. Besides, in data set [2], the “Expression levels of IL-1B, IL-6, IL-8, IL-15, TNFA, MIP2, CCR5, GM-CSF, VEGF, COX2, and iNOS” value was “dose-dependent alteration”; the “Expression of the other studied genes (CtBP2 and p300 targets)” value is given as “without affecting”.

Regarding `CNC(=O)Nc1ccc2c(c1)CC[C@@]21OC(=O)N(CC(=O)N(Cc2ccc(F)cc2)[C@@H](C)C(F)(F)F)C1=O` [A-485], in data set [1], the “Cell growth … at lower doses” value was “notable inhibition of cell growth”. Moreover, in data set [2], the “Expression of IL-1B, IL-6, IL-15, IL-18, TNFA, NOD2, CCL2, CXCL10, CXCL12, MMP1, and STAT1” value is recorded as “significantly modulated”; the “Expression of other genes under investigation (CtBP2 and NF-κB targets)” value is given as “no discernible impact”.

For the compound `CC1=NN(c2ccc(C(=O)O)cc2)C(=O)/C1=C\c1ccc(-c2cc(C)c(C)cc2[N+](=O)[O-])o1` [C646], the “Cell growth … at lower doses” value in data set [1] is on record as “notable inhibition of cell growth”. In addition, in data set [2], the “Expression of IL-1B, IL-6, IL-15, IL-18, TNFA, NOD2, CCL2, CXCL10, CXCL12, MMP1, and STAT1” value is “significantly modulated”; the “Expression of other genes under investigation (CtBP2 and NF-κB targets)” value is “no discernible impact”.

`CC(=CCCC1=CCC(C2COC(=O)C2)OC1O)CCC1=C(C)CCCC1(C)C` (centres unmarked) [PNSC928]: the “Cell growth (cell viability assay)” value in data set [1] (PNSC928 at 47.2 µM) is reported as “slight inhibition of cell growth”; in data set [1] (PNSC928 at lower concentrations (≤ 23.6 µM), all tested cell lines) it was “did not inhibit cell growth”.

With `CSCCC(=O)C(=O)O` [MTOB], in data set [1], the “Cell growth … at lower doses” value is “notable inhibition of cell growth”. For the same compound, in data set [2], the “Expression of IL-1B, IL-6, IL-15, IL-18, TNFA, CDH1, CDKN1A, CDKN2A, CHRD, PAX6, and BAX” value is listed as “dose-dependent reversal”; the “Expression of the remaining genes (p300 and NF-κB targets)” value is “remained relatively unchanged”.
